From patent US12492211B2, “Crystalline form of nitrogen-containing tricyclic compound and use thereof” (SUNSHINE LAKE PHARMA CO., LTD., priority 2019, dated 2025)

Tests used:
[1] = Pharmacokinetic test in Beagle dogs, oral capsules; assay type: in vivo; conditions: 5 mg/kg oral
Procedure: The crystal form A of compound having Formula (I) named 2-((5-cyclopropyl-3-(2,6-dichlorophenyl)isoxazol-4-yl)methoxy)-10H-spiro[benzo[6,7]oxepino[3,2-b]pyridine-11,1′-cyclopropane]-7-carboxylic acid was filled into capsules, which was for oral administration.
8-12 kg Male Beagle dogs were given 5 mg/kg test sample orally, with 3 animals in each group. Blood samples were taken at time points of 0.25, 0.5, 1.0, 2.0, 4.0, 6.0, 8.0, 12 and 24 h. Standard curve was plotted based on concentrations of the samples in a suitable range, the concentration of the test sample in the plasma sample was measured and quantified by AB SCIEX API4000 LC-MS/MS at MRM mode. Pharmacokinetic parameters were calculated according to drug concentration-time curve using a noncompartmental model by WinNonLin 6.3 software.

[2] = Stability test: light test (4500±500lx, UV); assay type: physicochemical; conditions: for Appearance / Purity (%): Light 4500±500lx, UV; for Purity (%): HPLC
Procedure: (3) Light test: A batch of the test sample was taken into a flat weighing bottle, divided into ≤5 mm thick thin layer. The sample was placed in an opened light box (with UV) at the illuminance 4500±500lx, UV light ≥0.7 w/m^2 for 30 days. The sample was then sampled at day 5, day 13 and day 30, and the change of the sample's color was observed. The purity of the sample was detected by HPLC, and the structure of the sample was analyzed by X-ray powder diffraction, the change of X-ray powder diffraction in light test was […] as shown in FIG. 6.

[3] = Stability test: high-humidity test (25° C., RH 90%±5%); assay type: physicochemical; conditions: for Appearance / Purity (%): High-humidity 25° C., RH 90%±5%; for Purity (%): HPLC
Procedure: (2) High-humidity test: A batch of the test sample was taken into a flat weighing bottle, divided into ≤5 mm thick thin layer. The sample was placed at 25° C., RH 90%±5% for 30 days. The sample was then sampled at day 5, day 10 and day 30, and the change of the sample's color was observed. The purity of the sample was detected by HPLC, and the structure of the sample was analyzed by X-ray powder diffraction, the change of X-ray powder diffraction in high humidity test was […] as shown in FIG. 5.

[4] = Stability test: high-temperature test (60° C.); assay type: physicochemical; conditions: for Purity (%): HPLC
Procedure: (1) High-temperature test: A batch of the test sample was taken into a flat weighing bottle, divided into ≤5 mm thick thin layer. The sample was placed at 60° C. for 30 days. The sample was then sampled at day 5, day 10 and day 30, and the change of the sample's color was observed. The purity of the sample was detected by HPLC, and the structure of the sample was analyzed by X-ray powder diffraction, the change of X-ray powder diffraction in high temperature test was […] as shown in FIG. 4.

[5] = Hygroscopicity test by dynamic moisture adsorption (DVS); assay type: physicochemical; conditions: relative humidity of 80%
Procedure: The description of the hygroscopic feature and the definition of the hygroscopic weight gain (Chinese Pharmacopoeia 2015 edition, Appendix 9103 Guidelines for Drug Hygroscopicity Tests, experimental conditions: 25° C.±1° C., 80%±2% relative humidity) are as described in the table below.
An appropriate amount of the test sample was taken and the hygroscopicity of the test sample was tested by dynamic moisture adsorption device. […] That is, the crystal form A of the invention is not easily deliquescent under the influence of high humidity.

[6] = dog, plasma, male Beagle dogs, capsules
[7] = High-temperature 60° C., 5 days
[8] = High-temperature 60° C., 10 days
[9] = High-temperature 60° C., 30 days

For `O=C(O)c1ccc2c(c1)Oc1ccc(OCc3c(-c4c(Cl)cccc4Cl)noc3C3CC3)nc1C1(CC1)C2` [Crystal form A, 2-((5-cyclopropyl-3-(2,6-dichlorophenyl)isoxazol-4-yl)methoxy)-10H-spiro[benzo[6,7]oxepino[3,2-b]pyridine-11,1′-cyclopropane]-7-carboxylic acid], the “exposure in Beagle dogs” value ([1]; conclusion in words) was “relatively large exposure”, the AUC(0-t) [1, 6] was 237 ng·h/mL and the Cmax [1, 6] was 86 ng/mL. For the same molecule, the Tmax ([1]; male Beagle dogs, capsules) was 40 min, the Appearance ([2]; 5 days) was “White” and the “Purity (%)” value ([2]; 5 days) was 99.53%. The Appearance ([2]; 13 days) was “White”, the “Purity (%)” value ([2]; 13 days) was 99.31% and the Appearance ([2]; 30 days) was “White”. The “Purity (%)” value ([2]; 30 days) was 99.43%, the “changes of appearance, chemical purity and crystal form” value (“changes of appearance” below) ([2]; light, up to 30 days) was “no obvious changes” and the Appearance ([3]; 5 days) was “White”. For the same molecule, the “Purity (%)” value ([3]; 5 days) was 99.55%, the Appearance ([3]; 10 days) was “White” and the “Purity (%)” value ([3]; 10 days) was 99.39%. For the same molecule, the Appearance ([3]; 30 days) was “White”, the “Purity (%)” value ([3]; 30 days) was 99.42% and the “changes of appearance” value ([3]; high-humidity, up to 30 days) was “no obvious changes”. The Appearance ([4]; 0 days (initial sample)) was “White”, the “Purity (%)” value ([4]; 0 days (initial sample)) was 99.44% and the Appearance [4, 7] was “White”. For the same molecule, the “Purity (%)” value [4, 7] was 99.33%, the Appearance [4, 8] was “White” and the “Purity (%)” value [4, 8] was 99.35%. The Appearance [4, 9] was “White”, the “Purity (%)” value [4, 9] was 99.45% and the “changes of appearance” value ([4]; high-temperature, up to 30 days) was “no obvious changes”. The “hygroscopic feature according to the criterion for the hygroscopic weight gain” value [5] was “no or almost none hygroscopicity” and the “weight gain after equilibrium” value [5] was “less than 0.1%”.
